Experimental findings from patent US9884063B2, “Amido-substituted azole compounds” (Bayer Pharma Aktiengesellschaft, priority 2014, dated 2018) are described below.

For the assay, the target named is T1, TNKS1 (Homo sapiens, UniProt O95271).
T1 sequence (O95271 1-1327): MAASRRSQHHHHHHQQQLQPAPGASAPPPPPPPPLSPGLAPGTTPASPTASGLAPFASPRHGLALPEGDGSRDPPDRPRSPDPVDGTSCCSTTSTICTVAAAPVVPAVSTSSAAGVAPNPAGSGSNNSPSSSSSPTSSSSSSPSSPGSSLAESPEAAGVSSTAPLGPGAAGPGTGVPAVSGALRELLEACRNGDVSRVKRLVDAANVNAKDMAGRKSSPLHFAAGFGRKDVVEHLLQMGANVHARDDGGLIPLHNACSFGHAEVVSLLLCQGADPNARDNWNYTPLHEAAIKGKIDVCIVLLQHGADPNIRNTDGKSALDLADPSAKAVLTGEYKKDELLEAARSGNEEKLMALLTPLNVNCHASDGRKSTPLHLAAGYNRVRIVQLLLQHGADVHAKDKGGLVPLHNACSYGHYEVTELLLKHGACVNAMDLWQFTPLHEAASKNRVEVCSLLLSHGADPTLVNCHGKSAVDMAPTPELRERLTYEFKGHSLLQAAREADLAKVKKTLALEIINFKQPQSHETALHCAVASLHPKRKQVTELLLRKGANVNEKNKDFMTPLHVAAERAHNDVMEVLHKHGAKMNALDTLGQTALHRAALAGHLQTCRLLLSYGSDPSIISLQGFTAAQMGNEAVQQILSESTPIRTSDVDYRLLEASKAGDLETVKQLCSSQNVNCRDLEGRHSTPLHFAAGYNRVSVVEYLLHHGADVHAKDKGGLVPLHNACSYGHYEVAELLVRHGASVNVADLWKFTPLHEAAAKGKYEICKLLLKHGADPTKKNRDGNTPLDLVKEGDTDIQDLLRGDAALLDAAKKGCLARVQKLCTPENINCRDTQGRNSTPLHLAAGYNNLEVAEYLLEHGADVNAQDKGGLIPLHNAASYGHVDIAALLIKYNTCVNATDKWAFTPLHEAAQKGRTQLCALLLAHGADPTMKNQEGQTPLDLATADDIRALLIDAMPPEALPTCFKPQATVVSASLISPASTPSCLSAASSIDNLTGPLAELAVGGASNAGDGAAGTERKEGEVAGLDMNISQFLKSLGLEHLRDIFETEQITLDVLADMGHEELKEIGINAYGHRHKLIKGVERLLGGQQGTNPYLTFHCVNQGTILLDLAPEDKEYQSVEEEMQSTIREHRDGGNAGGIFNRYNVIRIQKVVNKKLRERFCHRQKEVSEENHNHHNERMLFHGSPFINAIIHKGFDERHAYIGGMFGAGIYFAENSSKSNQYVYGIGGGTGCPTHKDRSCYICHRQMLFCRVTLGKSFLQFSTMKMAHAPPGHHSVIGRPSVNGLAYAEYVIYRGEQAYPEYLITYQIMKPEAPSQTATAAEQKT
In words: Modified TNKS1 Assay 3 (BPS kit #80573, biotin-NAD+, 96 well). It counts as biochemical. The note with it: human TNKS1, BPS kit #80573, 96 well. In outline: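 Chemiluminescent assay of TNKS1-catalysed ribosylation of a protein substrate with biotin-labelled NAD+, detected via streptavidin-HRP; run per kit protocol. Inhibition lowers the signal, and IC50 is the compound concentration halving the normalised readout.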

For `CC1CCN(CCNC(=O)c2nc[nH]c2C(=O)Nc2ccc(NC(=O)c3ccc(F)cc3Cl)cc2)CC1` [Example 126, N^5-{4-[(2-chloro-4-fluorobenzoyl)amino]phenyl}-N^4-[2-(4-methylpiperidin-1-yl)ethyl]-1H-imidazole-4,5-dicarboxamide], the half-maximal inhibitory concentration (IC50) was found to be 2 nM.
For `O=C(Nc1ccc(NC(=O)c2nc[nH]c2C(=O)NCCN2CCCC(F)C2)cc1)c1ccc(F)cc1Cl` (centres unmarked) [Example 226, N^4-{4-[(2-chloro-4-fluorobenzoyl)amino]phenyl}-N^5-[2-(3-fluoropiperidin-1-yl)ethyl]-1H-imidazole-4,5-dicarboxamide], it took 40 nM to reach half-maximal inhibition (IC50).
Under `O=C(Nc1ccc(NC(=O)c2nc[nH]c2C(=O)NC2CCOC2)cc1)c1ccc(F)cc1Cl` (centres unmarked) [Example 236, N^4-{4-[(2-chloro-4-fluorobenzoyl)amino]phenyl}-N^5-(tetrahydrofuran-3-yl)-1H-imidazole-4,5-dicarboxamide] stands 430 nM; under `O=C(Nc1ccc(NC(=O)c2[nH]cnc2C(=O)NCC(F)(F)F)cc1)c1ccc(F)cc1Cl` [Example 30, N^4-{4-[(2-chloro-4-fluorobenzoyl)amino]phenyl}-N^5-(2,2,2-trifluoroethyl)-1H-imidazole-4,5-dicarboxamide], 400 nM.
On to `CNC(=O)c1nc[nH]c1C(=O)Nc1ccc(NC(=O)c2ccc(F)cc2Cl)nc1` [Example 16, N^5-{6-[(2-chloro-4-fluorobenzoyl)amino]pyridin-3-yl}-N^4-methyl-1H-imidazole-4,5-dicarboxamide], for which it took 130 nM to reach half-maximal inhibition (IC50).
Consider `NC(=O)c1nc[nH]c1C(=O)Nc1ccc(NC(=O)c2ccc(F)cc2Cl)cc1` [Example 121], for which the IC50 was > 500 nM.
With `COCCNC(=O)c1[nH]cnc1C(=O)Nc1ccc(NC(=O)c2ccc(F)cc2Cl)cc1` [Example 130, N^4-{4-[(2-chloro-4-fluorobenzoyl)amino]phenyl}-N^5-(2-methoxyethyl)-1H-imidazole-4,5-dicarboxamide], the half-maximal inhibitory concentration (IC50) is 150 nM.
In turn, `CNC(=O)c1nc[nH]c1C(=O)Nc1ccc(NC(=O)c2ccc(F)cc2Cl)cc1` [Example 12, N^5-{4-[(2-chloro-4-fluorobenzoyl)amino]phenyl}-N^4-methyl-1H-imidazole-4,5-dicarboxamide] showed an IC50 of 260 nM.
Consider `CNC(=O)c1nc[nH]c1C(=O)Nc1ccc(NC(=O)c2cc(OC)c(OC)cc2Cl)cc1` [Example 240, N^5-{4-[(2-chloro-4,5-dimethoxybenzoyl)amino]phenyl}-N^4-methyl-1H-imidazole-4,5-dicarboxamide], for which inhibition was half-maximal at 20 nM (IC50).
For `CNC(=O)c1nc[nH]c1C(=O)Nc1ccc(NC(=O)c2cc(F)c(F)cc2Cl)cc1` [Example 242, N^5-{4-[(2-chloro-4,5-difluorobenzoyl)amino]phenyl}-N^4-methyl-1H-imidazole-4,5-dicarboxamide], the IC50 is 380 nM.
As to `CNC(=O)c1nc[nH]c1C(=O)Nc1ccc(NC(=O)c2ccc(C)cc2Cl)cc1` [Example 244, N^5-{4-[(2-chloro-4-methylbenzoyl)amino]phenyl}-N^4-methyl-1H-imidazole-4,5-dicarboxamide], half-maximal inhibition (IC50) required 150 nM.
In turn, `O=C(Nc1ccc(NC(=O)c2nc[nH]c2C(=O)NCCN2CCCCC2)cc1)c1ccc(F)cc1Br` [Example 216, N^4-{4-[(2-bromo-4-fluorobenzoyl)amino]phenyl}-N^5-[2-(piperidin-1-yl)ethyl]-1H-imidazole-4,5-dicarboxamide] displayed an IC50 of 3 nM.
Take `CNC(=O)c1nc[nH]c1C(=O)Nc1ccc(NC(=O)c2c(F)cc(F)cc2Cl)cc1` [Example 118, N^5-{4-[(2-chloro-4,6-difluorobenzoyl)amino]phenyl}-N^4-methyl-1H-imidazole-4,5-dicarboxamide]: the half-inhibitory concentration (IC50) is > 500 nM.
`CC1CCCN(CCNC(=O)c2[nH]cnc2C(=O)Nc2ccc(NC(=O)c3ccc(F)cc3Cl)cc2)C1` (centres unmarked) [Example 208, N^4-{4-[(2-chloro-4-fluorobenzoyl)amino]phenyl}-N^5-[2-(3-methylpiperidin-1-yl)ethyl]-1H-imidazole-4,5-dicarboxamide] gave an IC50 of 40 nM.
